The results in this text go back to patent US8829200B2, “Benzimidazole inhibitors of leukotriene production” (Boehringer Ingelheim International GmbH, priority 2010, dated 2014).

The target of assay [1] is recombinant human FLAP protein (Homo sapiens (Human), UniProt P20292). As to the kind of experiment: FLAP binding assay (Scintillation Proximity Assay). As to conditions: displacement of [125I]L-691,831, membranes of sf9 cells expressing human FLAP; read-out: SPA IC50. The procedure: Compounds are assessed for the ability to bind to FLAP in a binding assay that measures compound-specific displacement of an iodinated (^125I) FLAP inhibitor via a Scintillation Proximity Assay format (adapted from S. Charleson et al., Mol. Pharmacol., 1992, 41, 873-879).
Cell pellets produced from sf9 insect cells expressing recombinant human FLAP protein are resuspended in buffer A [15 mM Tris-HCl (pH 7.5), 2 mM MgCl2, 0.3 mM EDTA, 1 mM PMSF]. The cells are lysed with a Dounce homogenizer and the material is centrifuged at 10,000×g for 10 minutes. The supernatant is then collected and centrifuged at 100,000×g for 60 minutes. To prepare membrane protein for an assay, an aliquot of the 100,000×g pellet is resuspended in 1 ml of buffer A, Dounce homogenized, and finally subjected to polytron mixing (30 seconds). Membrane protein (25 μl, 5 μg) is mixed with WGA SPA beads (Amersham) and stirred for 1 h. To an assay plate (Perkin Elmer FlexiPlate) is added 25 μl of test compound prepared in Binding buffer [100 mM Tris (pH 7.5), 140 mM NaCl, 5% glycerol, 2 mM EDTA, 0.5 mM TCEP, 0.05% Tween 20], 25 μl of [^125I]L-691,831 (an iodinated analog of MK-591, Charleson et al. Mol. Pharmacol., 41, 873-879, 1992) and finally 50 μl of the bead/protein mixture. (final concentrations: beads, 200 μg/well; protein, 5 μg/well; [^125I] probe, 0.08 nM/well (17 nCi/well). The plates are shaken for 2 h before reading on a Microbeta plate reader. Non-specific binding is determined by the addition of 10 μM cold L-691,831 compound.
(In general: In a scintillation proximity assay essentially only radioactivity close to the scintillant gives light.)

Assay [2] relates to synthesis of LTB4 in human whole blood. As to the kind of experiment: human whole blood LTB4 production inhibition assay. The class given is cell-based. The note with it: heparinized human whole blood, calcimycin-stimulated, plasma LTB4; read-out: hWB IC50. The procedure:
Compounds are additionally tested in a human whole blood assay to determine their ability to inhibit the synthesis of LTB4 in a cellular system. Compounds are combined with heparinized human whole blood and incubated for 15 minutes at 37° C. Calcimycin ([…], prepared in phosphate-buffered saline, pH 7.4) is then added and the mixture is incubated for another 30 minutes at 37° C. The samples are centrifuged for 5 min at low speed (1500×g) and the plasma layer is removed. Plasma LTB4 concentrations are then measured using an antibody-based homogenous time-resolved fluorescence method (CisBio, Bedford, Mass.).

Chain of recombinant human FLAP protein (P20292 whole entry): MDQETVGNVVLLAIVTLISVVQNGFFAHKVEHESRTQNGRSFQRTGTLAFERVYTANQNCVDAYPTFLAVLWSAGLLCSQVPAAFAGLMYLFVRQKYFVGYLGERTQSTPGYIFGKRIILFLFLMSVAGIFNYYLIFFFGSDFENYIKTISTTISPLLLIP

In the case of `CC(C)(C)n1c(-c2ccccc2C(=O)O)nc2cc(-c3cnc(N)nc3)ccc21` [Example 1, 2-[5-(2-Amino-pyrimidin-5-yl)-1-tert-butyl-1H-benzoimidazol-2-yl]-benzoic acid], the IC50 (as a rule, the concentration needed to halve the response being measured) in assay [1] worked out at 1400 nM.

On to `CC(C)(C)n1c(-c2ccccc2C(=O)NC2CC2)nc2cc(-c3cnc(N)nc3)ccc21` [Example 2, 2-[5-(2-Amino-pyrimidin-5-yl)-1-tert-butyl-1H-benzoimidazol-2-yl]-N-cyclopropyl-benzamide], for which the IC50 turned out to be 25.2 nM in assay [1] and 2190 nM in assay [2].

On to `CC(C)(C)n1c(-c2ccccc2C(=O)Nc2ccncc2)nc2cc(-c3cnc(N)nc3)ccc21` [Example 3, 2-[5-(2-Amino-pyrimidin-5-yl)-1-tert-butyl-1H-benzoimidazol-2-yl]-N-pyridin-4-yl-benzamide], for which the values for the IC50 in assay [1] and in assay [2] were 0.91 nM and 763 nM, respectively.

For the compound `CNC(=O)c1ccccc1-c1nc2cc(-c3cnc(N)nc3)ccc2n1C(C)(C)C` [Example 4, 2-[5-(2-Amino-pyrimidin-5-yl)-1-tert-butyl-1H-benzoimidazol-2-yl]-N-methyl-benzamide], the IC50 turned out to be 11.4 nM in assay [1] and 433 nM in assay [2].

Turning to `CNC(=O)c1cc(F)c(F)cc1-c1nc2cc(-c3cnc(N)nc3)ccc2n1C(C)(C)C` [Example 5, 2-[5-(2-Amino-pyrimidin-5-yl)-1-tert-butyl-1H-benzoimidazol-2-yl]-4,5-difluoro-N-methyl-benzamide], the IC50 in assay [2] is 357 nM.

As for `CNC(=O)c1ccc(F)cc1-c1nc2cc(-c3cnc(N)nc3)ccc2n1C(C)(C)C` [Example 6, 2-[5-(2-Amino-pyrimidin-5-yl)-1-tert-butyl-1H-benzoimidazol-2-yl]-4-fluoro-N-methyl-benzamide], the IC50 in assay [1] was determined as 5.07 nM; in assay [2], 130 nM.

Turning to `CNC(=O)c1cc(OC)ccc1-c1nc2cc(-c3cnc(N)nc3)ccc2n1C(C)(C)C` [Example 7, 2-[5-(2-Amino-pyrimidin-5-yl)-1-tert-butyl-1H-benzoimidazol-2-yl]-5-methoxy-N-methyl-benzamide], the IC50 in assay [1] was 21.9 nM; in assay [2] it was 414 nM.

Take `CNC(=O)c1ccc(C#N)cc1-c1nc2cc(-c3cnc(N)nc3)ccc2n1C(C)(C)C` [Example 8, 2-[5-(2-Amino-pyrimidin-5-yl)-1-tert-butyl-1H-benzoimidazol-2-yl]-4-cyano-N-methyl-benzamide]: the IC50 in assay [1] was 7.4 nM; in assay [2] it was 94 nM.

In the case of `CNC(=O)c1ccc(-c2nn[nH]n2)cc1-c1nc2cc(-c3cnc(N)nc3)ccc2n1C(C)(C)C` [Example 9, 2-[5-(2-Amino-pyrimidin-5-yl)-1-tert-butyl-1H-benzoimidazol-2-yl]-N-methyl-4-(2H-tetrazol-5-yl)-benzamide], the IC50 is 111 nM in assay [1] and more than 5000 nM in assay [2].

As for `CC(C)(C)n1c(-c2cc(C#N)ccc2C(=O)NC#N)nc2cc(-c3cnc(N)nc3)ccc21` [Example 10, 2-[5-(2-Amino-pyrimidin-5-yl)-1-tert-butyl-1H-benzoimidazol-2-yl]-4-cyano-N-cyano-benzamide], the IC50 in assay [1] stood at 6.09 nM.

As to `CC(C)(C)n1c(-c2cc(C#N)ccc2C(=O)NS(C)(=O)=O)nc2cc(-c3cnc(N)nc3)ccc21` [Example 11, N-{2-[5-(2-Amino-pyrimidin-5-yl)-1-tert-butyl-1H-benzoimidazol-2-yl]-4-cyano-benzoyl}-methanesulfonamide], the IC50 in assay [1] was 55.6 nM.

In the case of `CN(C)C(=O)c1ccc(F)c(-c2nc3cc(-c4cnc(N)nc4)ccc3n2C(C)(C)C)c1` [Example 12, 3-[5-(2-Amino-pyrimidin-5-yl)-1-tert-butyl-1H-benzoimidazol-2-yl]-4-fluoro-N,N-dimethyl-benzamide], the IC50 in assay [1] was 610 nM; in assay [2], more than 5000 nM.

On to `CC(C)(C)n1c(-c2ccccc2C(N)=O)nc2cc(-c3cnc(N)nc3)ccc21` [Example 14, 2-[5-(2-Amino-pyrimidin-5-yl)-1-tert-butyl-1H-benzoimidazol-2-yl]-benzamide], for which the IC50 in assay [2] came out at 1150 nM.

With `CC(C)(C)n1c(-c2cc(C(=O)O)ccc2F)nc2cc(-c3cnc(N)nc3)ccc21` [Example 15, 3-[5-(2-Amino-pyrimidin-5-yl)-1-tert-butyl-1H-benzoimidazol-2-yl]-4-fluoro-benzoic acid], the IC50 was 220 nM in assay [1] and more than 5000 nM in assay [2].

Turning to `CC(C)(C)n1c(-c2cccc(C(=O)O)c2)nc2cc(-c3cnc(N)nc3)ccc21` [Example 16, 3-[5-(2-Amino-pyrimidin-5-yl)-1-tert-butyl-1H-benzoimidazol-2-yl]-benzoic acid], the IC50 in assay [1] turned out to be 645 nM.

In the case of `COC(=O)c1ccccc1-c1nc2cc(-c3cnc(N)nc3)ccc2n1C(C)(C)C` [Example 17, 2-[5-(2-Amino-pyrimidin-5-yl)-1-tert-butyl-1H-benzoimidazol-2-yl]-benzoic acid methyl ester], in assay [1], the IC50 was found to be 22 nM.

Consider `CC(C)(C)n1c(-c2ccccc2C(=O)NCC2CCCO2)nc2cc(-c3cnc(N)nc3)ccc21` (stereo not drawn) [Example 18, 2-[5-(2-Amino-pyrimidin-5-yl)-1-tert-butyl-1H-benzoimidazol-2-yl]-N-(tetrahydro-furan-2-ylmethyl)-benzamide], for which the IC50 in assay [1] came out at 18.8 nM; in assay [2], 2440 nM.

Regarding `COCCNC(=O)c1ccccc1-c1nc2cc(-c3cnc(N)nc3)ccc2n1C(C)(C)C` [Example 19, 2-[5-(2-Amino-pyrimidin-5-yl)-1-tert-butyl-1H-benzoimidazol-2-yl]-N-(2-methoxy-ethyl)-benzamide], the IC50 in assay [1] turned out to be 43.8 nM; in assay [2] it was 2870 nM.

Turning to `CC(C)(C)n1c(-c2ccccc2C(=O)Nc2ccccn2)nc2cc(-c3cnc(N)nc3)ccc21` [Example 20, 2-[5-(2-Amino-pyrimidin-5-yl)-1-tert-butyl-1H-benzoimidazol-2-yl]-N-pyridin-2-yl-benzamide], the figures for the half-maximal inhibitory concentration (IC50) in assay [1] and in assay [2] were 2.2 nM and 2700 nM, respectively.

On to `CC(C)(C)NC(=O)c1ccccc1-c1nc2cc(-c3cnc(N)nc3)ccc2n1C(C)(C)C` [Example 21, 2-[5-(2-Amino-pyrimidin-5-yl)-1-tert-butyl-1H-benzoimidazol-2-yl]-N-tert-butyl-benzamide], for which the IC50 turned out to be 14.7 nM in assay [1] and 3290 nM in assay [2].

Turning to `CC(C)(C)n1c(-c2ccccc2C(=O)Nc2cccnc2)nc2cc(-c3cnc(N)nc3)ccc21` [Example 22, 2-[5-(2-Amino-pyrimidin-5-yl)-1-tert-butyl-1H-benzoimidazol-2-yl]-N-pyridin-3-yl-benzamide], the IC50 in assay [1] is 1.5 nM; in assay [2], 2250 nM.

With `CCNC(=O)c1ccccc1-c1nc2cc(-c3cnc(N)nc3)ccc2n1C(C)(C)C` [Example 23, 2-[5-(2-Amino-pyrimidin-5-yl)-1-tert-butyl-1H-benzoimidazol-2-yl]-N-ethyl-benzamide], the IC50 in assay [1] is 17.4 nM; in assay [2], 2230 nM.

For `CN(C(=O)c1ccccc1-c1nc2cc(-c3cnc(N)nc3)ccc2n1C(C)(C)C)c1ccccn1` [Example 27, 2-[5-(2-Amino-pyrimidin-5-yl)-1-tert-butyl-1H-benzoimidazol-2-yl]-N-methyl-N-pyridin-2-yl-benzamide], the IC50 in assay [1] is 180 nM.

Consider `CCNC(=O)c1ccc(F)cc1-c1nc2cc(-c3cnc(N)nc3)ccc2n1C(C)(C)C` [Example 30, 2-[5-(2-Amino-pyrimidin-5-yl)-1-tert-butyl-1H-benzoimidazol-2-yl]-N-ethyl-4-fluoro-benzamide], for which, in assay [2], the IC50 was found to be 413 nM.

`CC(C)(C)n1c(-c2cc(F)ccc2C(=O)Nc2cccnc2)nc2cc(-c3cnc(N)nc3)ccc21` [Example 31, 2-[5-(2-Amino-pyrimidin-5-yl)-1-tert-butyl-1H-benzoimidazol-2-yl]-4-fluoro-N-pyridin-3-yl-benzamide]: the IC50 in assay [2] stood at 1950 nM.

Turning to `CC(C)(C)n1c(-c2cc(F)ccc2C(=O)NCc2cccnc2)nc2cc(-c3cnc(N)nc3)ccc21` [Example 32, 2-[5-(2-Amino-pyrimidin-5-yl)-1-tert-butyl-1H-benzoimidazol-2-yl]-4-fluoro-N-pyridin-3-ylmethyl-benzamide], in assay [2], the IC50 worked out at 939 nM.

On to `COc1cncc(-c2ccc3c(c2)nc(-c2cccc(C(N)=O)c2)n3C(C)(C)C)c1` [Example 35, 3-[1-tert-Butyl-5-(5-methoxy-pyridin-3-yl)-1H-benzoimidazol-2-yl]-benzamide], for which the IC50 in assay [1] stood at 4700 nM.
